Measurements: article PMC5862616 (Oncotarget, 2018)
Entries after “also recorded” stand apart in the source; their conditions may differ.

Tests used:
DDR1 = DDR1 (Homo sapiens, UniProt Q08345); assay: scanMAX kinase panel
[1] = tested on: p-ERK (MAPK 42/44) in KM-12 cells; assay: Western blot of phosphorylated MAPK 42/44 (ERK) in KM-12 cells; type: cell-based; settings: KM-12 cells, 2 hours, western blot; b12: 100, 500, 1000 nM
Procedure: 20 μg NTRK1 fusion confirmation
T20 (ThermoScientific, Rockford, IL) for 30 minutes. MiniPrep cat# R2051 following manufacturer ’s protocol. […]
(1:2000) (Sigma-Aldrich), HRP-conjugated mouse or primers. The primer sequences are TPM3_Ex3B_F5:
Chalfont, UK). All western blots were developed using Ex12_R5: […]. PCR was […]

RET = RET (Homo sapiens, UniProt P07949); assay: scanMAX kinase panel
AXL = target: T1, AXL (Homo sapiens, UniProt P30530); assay: scanMAX kinase panel
T1 sequence (P30530 26-894): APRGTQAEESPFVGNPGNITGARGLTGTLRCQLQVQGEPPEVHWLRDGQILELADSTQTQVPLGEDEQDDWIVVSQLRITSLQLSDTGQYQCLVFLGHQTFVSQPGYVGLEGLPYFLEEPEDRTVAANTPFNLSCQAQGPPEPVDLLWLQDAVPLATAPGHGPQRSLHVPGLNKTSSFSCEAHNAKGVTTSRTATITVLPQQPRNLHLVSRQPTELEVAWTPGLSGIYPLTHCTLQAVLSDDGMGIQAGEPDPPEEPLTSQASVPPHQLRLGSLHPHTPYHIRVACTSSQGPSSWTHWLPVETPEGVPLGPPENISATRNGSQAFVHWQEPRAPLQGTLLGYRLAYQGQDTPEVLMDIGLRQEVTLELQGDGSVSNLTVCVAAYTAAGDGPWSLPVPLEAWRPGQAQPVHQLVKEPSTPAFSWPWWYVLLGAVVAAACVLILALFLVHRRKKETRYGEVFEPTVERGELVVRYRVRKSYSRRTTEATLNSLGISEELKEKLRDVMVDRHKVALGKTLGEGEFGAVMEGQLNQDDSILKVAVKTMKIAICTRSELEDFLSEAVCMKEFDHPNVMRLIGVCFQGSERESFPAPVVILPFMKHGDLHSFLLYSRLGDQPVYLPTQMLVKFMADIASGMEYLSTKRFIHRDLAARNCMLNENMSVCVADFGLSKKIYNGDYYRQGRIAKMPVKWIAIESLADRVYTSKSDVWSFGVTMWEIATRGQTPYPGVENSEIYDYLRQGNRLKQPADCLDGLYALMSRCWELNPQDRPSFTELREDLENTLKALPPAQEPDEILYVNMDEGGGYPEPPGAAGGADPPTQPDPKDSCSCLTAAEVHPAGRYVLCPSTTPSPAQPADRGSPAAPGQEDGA

PDGFRA = PDGFRA (Homo sapiens, UniProt P16234); assay: scanMAX kinase panel
NTRK1 (TrkA) = NTRK1 (TrkA) (Homo sapiens, UniProt P04629); assay: TrkA PathHunter cell based kinase assay (activation by NGF); set-up: purchased DiscoveRx; settings: activation by the ligand NGF; ten-point, 3.8 nM - 10 μM
TYRO3 = target: T2, TYRO3 (Homo sapiens, UniProt Q06418); assay: scanMAX kinase panel
T2 sequence (Q06418 41-890): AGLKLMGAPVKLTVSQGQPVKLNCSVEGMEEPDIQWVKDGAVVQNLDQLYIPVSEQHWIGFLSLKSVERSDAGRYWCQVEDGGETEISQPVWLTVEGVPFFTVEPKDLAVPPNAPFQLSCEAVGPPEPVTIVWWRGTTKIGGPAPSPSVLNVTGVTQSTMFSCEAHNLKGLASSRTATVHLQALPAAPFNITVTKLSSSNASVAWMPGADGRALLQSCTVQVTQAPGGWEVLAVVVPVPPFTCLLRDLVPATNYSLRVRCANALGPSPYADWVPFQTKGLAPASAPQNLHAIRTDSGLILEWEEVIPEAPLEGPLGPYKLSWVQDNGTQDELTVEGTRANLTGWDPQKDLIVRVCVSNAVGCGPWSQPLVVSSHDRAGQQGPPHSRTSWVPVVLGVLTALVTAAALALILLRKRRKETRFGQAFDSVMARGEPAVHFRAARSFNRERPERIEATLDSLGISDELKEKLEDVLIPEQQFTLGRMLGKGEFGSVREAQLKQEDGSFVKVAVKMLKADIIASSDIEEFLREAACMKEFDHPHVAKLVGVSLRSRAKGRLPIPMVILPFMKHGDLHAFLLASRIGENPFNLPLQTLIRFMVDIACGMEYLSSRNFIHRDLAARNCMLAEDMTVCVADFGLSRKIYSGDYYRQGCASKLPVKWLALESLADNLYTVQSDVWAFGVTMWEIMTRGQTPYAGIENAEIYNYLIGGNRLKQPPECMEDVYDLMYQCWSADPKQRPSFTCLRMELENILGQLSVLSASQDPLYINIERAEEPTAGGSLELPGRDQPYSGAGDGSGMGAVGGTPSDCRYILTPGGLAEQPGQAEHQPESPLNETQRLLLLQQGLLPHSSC

Sequence of NTRK1 (TrkA) (P04629 33-796): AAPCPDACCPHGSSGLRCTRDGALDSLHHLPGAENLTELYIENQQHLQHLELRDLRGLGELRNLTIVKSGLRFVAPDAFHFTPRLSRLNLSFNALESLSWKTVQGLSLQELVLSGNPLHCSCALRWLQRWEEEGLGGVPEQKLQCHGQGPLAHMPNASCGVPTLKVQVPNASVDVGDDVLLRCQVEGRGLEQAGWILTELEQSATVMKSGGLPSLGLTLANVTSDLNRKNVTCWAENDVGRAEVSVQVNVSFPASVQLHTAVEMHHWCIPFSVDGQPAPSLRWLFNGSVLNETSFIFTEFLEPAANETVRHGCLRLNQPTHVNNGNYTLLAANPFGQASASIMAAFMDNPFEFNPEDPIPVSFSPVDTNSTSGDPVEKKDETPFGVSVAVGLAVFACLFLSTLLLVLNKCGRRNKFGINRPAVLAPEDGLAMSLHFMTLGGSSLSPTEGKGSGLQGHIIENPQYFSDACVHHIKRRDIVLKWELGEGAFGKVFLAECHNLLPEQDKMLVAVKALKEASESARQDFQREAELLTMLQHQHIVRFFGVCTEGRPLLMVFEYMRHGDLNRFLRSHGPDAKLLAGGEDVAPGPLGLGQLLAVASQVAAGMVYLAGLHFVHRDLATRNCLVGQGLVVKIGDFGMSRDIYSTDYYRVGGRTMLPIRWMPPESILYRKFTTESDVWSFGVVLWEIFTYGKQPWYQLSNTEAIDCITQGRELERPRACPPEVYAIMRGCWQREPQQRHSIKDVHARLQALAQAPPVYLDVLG
Sequence of DDR1 (Q08345 19-913): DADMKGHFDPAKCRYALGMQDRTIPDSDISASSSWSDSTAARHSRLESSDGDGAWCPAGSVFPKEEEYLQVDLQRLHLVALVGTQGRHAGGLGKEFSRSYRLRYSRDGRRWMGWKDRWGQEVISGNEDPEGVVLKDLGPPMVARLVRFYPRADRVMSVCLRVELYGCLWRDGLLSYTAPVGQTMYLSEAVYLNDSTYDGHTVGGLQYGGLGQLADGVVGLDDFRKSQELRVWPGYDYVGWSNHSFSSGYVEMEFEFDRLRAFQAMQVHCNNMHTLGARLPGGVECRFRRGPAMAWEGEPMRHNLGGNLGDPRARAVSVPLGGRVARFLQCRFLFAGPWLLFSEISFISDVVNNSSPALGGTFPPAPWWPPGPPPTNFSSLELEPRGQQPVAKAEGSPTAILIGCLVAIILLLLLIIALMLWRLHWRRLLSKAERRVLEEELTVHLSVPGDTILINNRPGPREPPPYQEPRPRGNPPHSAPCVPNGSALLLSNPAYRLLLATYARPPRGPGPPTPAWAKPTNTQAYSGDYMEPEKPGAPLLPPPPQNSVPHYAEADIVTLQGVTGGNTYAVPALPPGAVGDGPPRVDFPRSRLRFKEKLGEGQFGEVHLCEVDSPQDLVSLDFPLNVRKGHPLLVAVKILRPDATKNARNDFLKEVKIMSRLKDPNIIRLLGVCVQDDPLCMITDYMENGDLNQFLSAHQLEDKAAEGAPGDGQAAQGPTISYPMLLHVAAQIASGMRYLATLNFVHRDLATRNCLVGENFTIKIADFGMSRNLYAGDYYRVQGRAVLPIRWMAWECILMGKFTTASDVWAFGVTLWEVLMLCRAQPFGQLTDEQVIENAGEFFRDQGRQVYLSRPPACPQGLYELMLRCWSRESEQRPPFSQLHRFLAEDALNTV
Sequence of PDGFRA (P16234 24-1089): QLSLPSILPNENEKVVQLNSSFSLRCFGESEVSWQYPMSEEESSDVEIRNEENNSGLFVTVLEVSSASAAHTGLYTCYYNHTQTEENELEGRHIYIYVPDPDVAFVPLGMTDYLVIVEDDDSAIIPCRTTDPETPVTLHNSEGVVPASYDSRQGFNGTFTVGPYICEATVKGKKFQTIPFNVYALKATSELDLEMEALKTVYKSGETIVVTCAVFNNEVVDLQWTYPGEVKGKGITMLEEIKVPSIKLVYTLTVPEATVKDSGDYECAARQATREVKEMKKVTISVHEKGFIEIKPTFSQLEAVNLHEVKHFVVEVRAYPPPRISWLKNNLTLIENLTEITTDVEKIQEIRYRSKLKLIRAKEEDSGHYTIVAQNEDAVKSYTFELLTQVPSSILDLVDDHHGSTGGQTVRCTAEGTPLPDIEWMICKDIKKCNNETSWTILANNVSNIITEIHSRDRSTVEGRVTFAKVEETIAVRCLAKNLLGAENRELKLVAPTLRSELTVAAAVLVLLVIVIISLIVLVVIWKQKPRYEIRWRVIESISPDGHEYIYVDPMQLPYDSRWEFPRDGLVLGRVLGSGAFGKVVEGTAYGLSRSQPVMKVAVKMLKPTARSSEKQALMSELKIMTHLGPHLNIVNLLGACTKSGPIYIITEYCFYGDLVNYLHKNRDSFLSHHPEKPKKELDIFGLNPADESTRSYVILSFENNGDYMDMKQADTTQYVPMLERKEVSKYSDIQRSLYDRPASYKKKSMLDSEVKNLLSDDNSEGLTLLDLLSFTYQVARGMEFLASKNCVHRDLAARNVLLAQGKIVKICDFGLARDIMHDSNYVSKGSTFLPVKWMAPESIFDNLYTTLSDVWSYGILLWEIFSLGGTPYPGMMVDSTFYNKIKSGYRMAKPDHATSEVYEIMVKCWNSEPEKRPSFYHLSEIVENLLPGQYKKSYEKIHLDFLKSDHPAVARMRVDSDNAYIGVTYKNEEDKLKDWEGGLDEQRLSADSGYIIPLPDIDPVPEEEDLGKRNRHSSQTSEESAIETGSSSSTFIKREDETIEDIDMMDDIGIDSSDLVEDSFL
Sequence of RET (P07949 29-1114): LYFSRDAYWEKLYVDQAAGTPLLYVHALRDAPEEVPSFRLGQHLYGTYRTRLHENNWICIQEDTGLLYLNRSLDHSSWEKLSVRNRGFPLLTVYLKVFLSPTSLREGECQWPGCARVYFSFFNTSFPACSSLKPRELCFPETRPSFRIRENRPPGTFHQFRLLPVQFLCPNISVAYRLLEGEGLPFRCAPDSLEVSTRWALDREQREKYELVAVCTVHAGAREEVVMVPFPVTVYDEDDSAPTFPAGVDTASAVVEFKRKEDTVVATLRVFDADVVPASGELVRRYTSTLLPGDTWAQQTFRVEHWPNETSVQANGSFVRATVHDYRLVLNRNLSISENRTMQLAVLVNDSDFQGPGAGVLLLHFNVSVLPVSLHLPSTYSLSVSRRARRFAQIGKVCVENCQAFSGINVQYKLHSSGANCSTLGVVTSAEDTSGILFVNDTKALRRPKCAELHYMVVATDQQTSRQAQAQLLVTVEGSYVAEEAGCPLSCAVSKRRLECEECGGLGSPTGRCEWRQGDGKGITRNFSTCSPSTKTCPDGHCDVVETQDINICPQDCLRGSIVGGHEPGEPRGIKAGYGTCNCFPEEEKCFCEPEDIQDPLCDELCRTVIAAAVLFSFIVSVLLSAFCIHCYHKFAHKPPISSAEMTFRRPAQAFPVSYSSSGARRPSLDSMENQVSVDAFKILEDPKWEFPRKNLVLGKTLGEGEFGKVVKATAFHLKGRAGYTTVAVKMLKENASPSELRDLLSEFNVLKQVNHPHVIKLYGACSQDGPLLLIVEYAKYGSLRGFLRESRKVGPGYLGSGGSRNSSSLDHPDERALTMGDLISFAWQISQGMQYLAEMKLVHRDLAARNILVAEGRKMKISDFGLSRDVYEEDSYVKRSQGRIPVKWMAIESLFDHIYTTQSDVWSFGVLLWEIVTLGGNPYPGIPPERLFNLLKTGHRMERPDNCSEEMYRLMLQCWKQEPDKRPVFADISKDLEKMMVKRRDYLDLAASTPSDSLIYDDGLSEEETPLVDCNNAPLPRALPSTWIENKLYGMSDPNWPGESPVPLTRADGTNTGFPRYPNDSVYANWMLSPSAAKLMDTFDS

Row | % Inhibition at 0.2 μM, DDR1 (DDR1) [%] | % Inhibition at 0.2 μM, RET (RET) [%] | % Inhibition at 0.2 μM, AXL (AXL) [%] | % Inhibition at 0.2 μM, PDGFRA (PDGFRA) [%] | IC50 (NTRK1 (TrkA)) [nM] | % Inhibition at 0.2 μM, TYRO3 (TYRO3) [%] | SMILES | p-ERK inhibition (in words) [1] | inhibition at 0.2 µM (AXL; read-out: % Inhibition at 0.2 μM, AXL) [%]
1 | 100 | 72 | 99 | 80 | 12 | 100 | Cc1ccc(C(=O)Nc2ccc(Oc3cc4cn[nH]c4cc3-c3cn[nH]c3)c(F)c2)c(=O)n1-c1ccc(F)cc1 [M1] | potent inhibition | –
2 | 100 | 61 | 100 | 70 | 92 | 97 | Cn1ncc2cc(Oc3ccc(NC(=O)c4ccc(CO)n(-c5ccc(F)cc5)c4=O)cc3F)c(-c3cn[nH]c3)cc21 [M2] | slightly less so | –

Row | SMILES | % Inhibition at 0.2 μM, DDR1 (DDR1) [%] | % Inhibition at 0.2 μM, RET (RET) [%] | % Inhibition at 0.2 μM, AXL (AXL) [%] | % Inhibition at 0.2 μM, PDGFRA (PDGFRA) [%] | IC50 (NTRK1 (TrkA)) [nM] | % Inhibition at 0.2 μM, TYRO3 (TYRO3) [%] | p-ERK inhibition (in words) [1] | inhibition at 0.2 µM (AXL; read-out: % Inhibition at 0.2 μM, AXL) [%]
3 | Cc1ccc(C(=O)Nc2ccc(Oc3cc4cnn(C)c4cc3-c3cn[nH]c3)c(F)c2)c(=O)n1-c1ccc(F)cc1 [Merestinib] | 100 | 79 | – | 55 | 17 | 99 | dose dependent inhibition; also recorded: potent inhibition | 100
